Measured values taken from the supplement of paper PMC10307832.

Tests used:
Assay in all cases: relative viability (nuclei count vs DMSO), 5 days (fraction); higher = more cells survive
NVP-TAE684 + Navitoclax = compound: COc1cc(N2CCC(N3CCN(C)CC3)CC2)ccc1Nc1ncc(Cl)c(Nc2ccccc2S(=O)(=O)C(C)C)n1 [NVP-TAE684] + CC1(C)CCC(c2ccc(Cl)cc2)=C(CN2CCN(c3ccc(C(=O)NS(=O)(=O)c4ccc(N[C@H](CCN5CCOCC5)CSc5ccccc5)c(S(=O)(=O)C(F)(F)F)c4)cc3)CC2)C1 [Navitoclax] (partner 0.5 µM)
Method in brief: (§1)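 Lung cancer cell lines were seeded in 1536-well plates and dosed by pin tool the next day, with either a single drug or a fixed anchor-drug dose combined with five library-drug doses (not always all listed) spaced in √10 steps. Five days later, one step fixed the cells and stained their nuclei (final 0.05% Triton X-100, 1% formaldehyde, 1 ug/ml Hoechst), and nuclei were counted on 4× images. Relative viability is the nuclei count in treated wells divided by the count in vehicle wells, and each value is the median of duplicate plates.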

Vandetanib + Vorinostat = compound: COc1cc2/c(=N/c3ccc(Br)cc3F)nc[nH]c2cc1OCC1CCN(C)CC1 [Vandetanib] + O=C(CCCCCCC(=O)Nc1ccccc1)NO [Vorinostat] (partner 1 µM)
Method in brief: as §1

NVP-TAE684 + Luminespib = compound: COc1cc(N2CCC(N3CCN(C)CC3)CC2)ccc1Nc1ncc(Cl)c(Nc2ccccc2S(=O)(=O)C(C)C)n1 [NVP-TAE684] + CCNC(=O)c1noc(-c2cc(C(C)C)c(O)cc2O)c1-c1ccc(CN2CCOCC2)cc1 [Luminespib] (partner 0.01 µM)
Method in brief: as §1

NVP-TAE684 + Tozasertib = compound: COc1cc(N2CCC(N3CCN(C)CC3)CC2)ccc1Nc1ncc(Cl)c(Nc2ccccc2S(=O)(=O)C(C)C)n1 [NVP-TAE684] + Cc1cc(Nc2cc(N3CCN(C)CC3)nc(Sc3ccc(NC(=O)C4CC4)cc3)n2)n[nH]1 [Tozasertib] (partner 0.1 µM)
Method in brief: as §1

NVP-TAE684 + Olaparib = compound: COc1cc(N2CCC(N3CCN(C)CC3)CC2)ccc1Nc1ncc(Cl)c(Nc2ccccc2S(=O)(=O)C(C)C)n1 [NVP-TAE684] + O=C(c1cc(Cc2n[nH]c(=O)c3ccccc23)ccc1F)N1CCN(C(=O)C2CC2)CC1 [Olaparib] (partner 8 µM)
Method in brief: as §1

Cell Line	relative viability (NVP-TAE684 + Navitoclax; first compound 0.2 µM)	relative viability (NVP-TAE684 + Navitoclax; first compound 0.6325 µM)	relative viability (NVP-TAE684 + Navitoclax; first compound 2 µM)	relative viability (Vandetanib + Vorinostat; first compound 0.02 µM)	relative viability (Vandetanib + Vorinostat; first compound 0.06325 µM)	relative viability (Vandetanib + Vorinostat; first compound 0.2 µM)	relative viability (Vandetanib + Vorinostat; first compound 0.6325 µM)	relative viability (Vandetanib + Vorinostat; first compound 2 µM)	relative viability (NVP-TAE684 + Luminespib; first compound 0.2 µM)	relative viability (NVP-TAE684 + Luminespib; first compound 0.6325 µM)	relative viability (NVP-TAE684 + Luminespib; first compound 2 µM)	relative viability (NVP-TAE684 + Tozasertib; first compound 0.2 µM)	relative viability (NVP-TAE684 + Tozasertib; first compound 0.6325 µM)	relative viability (NVP-TAE684 + Tozasertib; first compound 2 µM)	relative viability (NVP-TAE684 + Olaparib; first compound 0.2 µM)	relative viability (NVP-TAE684 + Olaparib; first compound 0.6325 µM)	relative viability (NVP-TAE684 + Olaparib; first compound 2 µM)
NCI-H441	0.472	0.583	0.319	0.781	0.702	0.8	0.767	0.821	0.315	0.313	0.36	0.608	0.554	0.266	0.617	0.659	0.309
NCI-H460	–	1.14	0.407	0.632	0.674	0.685	0.654	0.674	0.0418	0.0325	0.0305	0.671	0.498	0.4	0.537	0.484	0.633
NCI-H520	1.11	1.13	0.357	0.7	0.706	0.739	0.677	0.639	0.189	0.219	0.219	0.408	0.466	0.358	0.327	0.332	0.198
NCI-H596	0.936	0.969	0.509	1.37	0.562	0.657	0.666	0.693	0.914	0.832	0.758	1.17	0.883	0.861	0.66	0.595	0.537
NCI-H647	1.4	1.06	1.16	0.514	0.569	0.684	0.715	0.432	0.133	0.108	0.264	0.0998	0.288	0.115	0.434	0.562	0.16
NCI-H727	0.381	0.331	0.153	1.11	1.18	1.13	1.26	0.992	0.24	0.382	0.216	0.495	0.532	0.32	0.612	0.601	0.679
NCI-H838	1.43	1.09	0.403	0.731	0.679	0.772	0.78	0.68	0.27	0.275	0.282	0.311	0.233	0.226	0.737	0.611	0.252
NCI-H1355	0.882	0.992	0.622	0.603	0.565	0.671	0.624	0.649	0.594	0.687	0.471	0.521	0.471	0.301	0.657	0.713	0.499
NCI-H1395	1.79	1.01	1.02	0.622	0.881	0.495	0.63	0.596	0.686	0.834	0.732	0.819	0.699	0.626	0.463	0.422	0.384
NCI-H1437	1.31	1.12	0.631	0.824	0.819	0.866	0.937	0.995	1.14	1.13	1.08	0.433	0.396	0.311	0.65	0.663	0.523
NCI-H1650	–	1.08	0.545	0.525	0.502	0.599	0.544	0.452	0.184	0.206	0.182	0.317	0.385	0.165	0.757	0.758	0.825
NCI-H1651	1.41	1.07	0.964	0.53	0.618	0.62	0.535	0.593	1.24	–	0.693	0.931	0.695	0.576	0.181	0.186	0.173
NCI-H1666	0.932	0.919	0.566	1.06	0.968	1.09	0.964	0.993	0.945	0.975	0.843	0.569	0.63	0.488	0.734	0.772	0.736
NCI-H1734	0.844	0.91	0.769	0.87	0.71	0.755	0.852	0.815	0.221	0.164	0.166	0.283	0.261	0.196	0.668	0.665	0.461
NCI-H1755	1.06	1.06	0.921	0.768	0.818	0.773	0.709	0.709	0.304	0.272	0.445	0.601	0.585	0.473	0.926	0.965	–
NCI-H1793	0.467	0.491	0.43	0.716	0.618	0.651	0.648	0.624	0.164	0.168	0.144	0.346	0.323	0.25	1.01	0.841	0.508
NCI-H1915	0.795	0.806	0.752	0.497	0.512	0.535	0.532	0.505	0.631	0.821	0.699	0.487	0.415	0.492	0.295	0.281	0.228
NCI-H1944	1.19	0.961	1.08	0.51	0.542	0.526	0.476	0.602	0.667	0.741	0.58	0.271	0.248	0.225	0.373	0.421	0.419
